Source: ChEMBL document CHEMBL1128029, “Synthesis and biological properties of a new series of anti-MRSA -lactams; 2-(thiazol-2-ylthio)carbapenems” (Bioorg Med Chem Lett, 1994)
Converted amounts (≈) assume the structure as drawn.

Key:
[1] = system: Escherichia coli; assay: In vitro minimum inhibitory concentration against Escherichia coli NIHJ JC-2; format: functional
[2] = system: Klebsiella pneumoniae; assay: In vitro minimum inhibitory concentration against Klebsiella pneumoniae ATCC 10031; format: functional
[3] = system: Staphylococcus epidermidis; assay: In vitro minimum inhibitory concentration against Staphylococcus epidermidis IAM1296; format: functional
[4] = system: Staphylococcus aureus; assay: In vitro minimum inhibitory concentration against Staphylococcus aureus MS9408; format: functional
[5] = system: Staphylococcus aureus; assay: In vitro minimum inhibitory concentration against Staphylococcus aureus SP-7928; format: functional
[6] = target: Albumin (Homo sapiens, UniProt P02768); assay: Binding affinity towards Human Serum albumin.
[7] = system: Staphylococcus aureus; assay: In vitro minimum inhibitory concentration against Staphylococcus aureus 209p; format: functional
[8] = target: T1, Dipeptidase 1 (Sus scrofa) (UniProt P22412); assay: Time of enzyme-catalyzed hydrolysis from 500 uM to 400 uM in the presence of purified renal DHP-1 of swine
T1 sequence (whole entry): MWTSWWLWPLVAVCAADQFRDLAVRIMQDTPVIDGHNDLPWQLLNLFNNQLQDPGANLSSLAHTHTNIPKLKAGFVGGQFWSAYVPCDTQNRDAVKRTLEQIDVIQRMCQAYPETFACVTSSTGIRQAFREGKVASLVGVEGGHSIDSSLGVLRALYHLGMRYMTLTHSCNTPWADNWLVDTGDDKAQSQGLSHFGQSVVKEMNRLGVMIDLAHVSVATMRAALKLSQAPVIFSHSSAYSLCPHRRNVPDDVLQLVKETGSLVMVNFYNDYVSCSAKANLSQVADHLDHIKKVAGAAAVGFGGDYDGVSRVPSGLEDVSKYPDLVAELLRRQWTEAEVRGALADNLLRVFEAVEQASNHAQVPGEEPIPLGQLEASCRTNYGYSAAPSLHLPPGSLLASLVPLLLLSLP

Sequence of Albumin (P02768 whole entry): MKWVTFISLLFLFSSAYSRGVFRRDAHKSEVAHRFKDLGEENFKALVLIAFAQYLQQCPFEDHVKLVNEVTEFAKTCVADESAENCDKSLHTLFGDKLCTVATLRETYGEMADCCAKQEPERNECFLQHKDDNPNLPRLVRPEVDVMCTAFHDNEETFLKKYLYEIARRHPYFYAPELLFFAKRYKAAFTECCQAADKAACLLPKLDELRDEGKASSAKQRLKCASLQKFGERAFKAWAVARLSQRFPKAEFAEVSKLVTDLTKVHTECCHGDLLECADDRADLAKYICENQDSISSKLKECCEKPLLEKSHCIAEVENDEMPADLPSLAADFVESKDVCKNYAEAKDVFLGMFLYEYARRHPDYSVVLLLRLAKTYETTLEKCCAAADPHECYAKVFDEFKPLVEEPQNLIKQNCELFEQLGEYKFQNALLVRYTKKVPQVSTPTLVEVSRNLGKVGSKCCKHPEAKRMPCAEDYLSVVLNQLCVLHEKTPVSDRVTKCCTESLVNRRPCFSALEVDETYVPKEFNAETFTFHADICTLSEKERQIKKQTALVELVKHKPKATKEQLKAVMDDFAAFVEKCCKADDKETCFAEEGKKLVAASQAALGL

Compound | MIC [1] [µg/mL] | MIC [2] [µg/mL] | MIC [3] [µg/mL] | MIC [4] [µg/mL] | MIC [5] [µg/mL] | Binding [6] [%] | MIC [7] [µg/mL] | TIME [8] [h]
C[C@@H](O)[C@H]1C(=O)N2C(C(=O)O)=C(Sc3nc(-c4ccc(N)cc4)cs3)[C@H](C)[C@H]12 | 6.25 (≈ 15 µM) | 0.05 (≈ 0.12 µM) | 0.025 (≈ 0.0599 µM) | 0.2 (≈ 0.479 µM) | 1.56 (≈ 3.74 µM) | 98 | < 0.013 | 0.3
C[C@@H](O)[C@H]1C(=O)N2C(C(=O)O)=C(SCCN=CN)C[C@H]12 [IMIPENEM ANHYDROUS] |  |  |  |  |  | < 10 |  | 
C[C@@H](O)[C@H]1C(=O)N2C(C(=O)O)=C(Sc3nccs3)[C@H](C)[C@H]12 | 0.78 (≈ 2.39 µM) | 0.05 (≈ 0.153 µM) | 0.1 (≈ 0.306 µM) | 0.78 (≈ 2.39 µM) | 12.5 (≈ 38.3 µM) | 69 | 0.025 (≈ 0.0766 µM) | 0.25
C[C@@H](O)[C@H]1C(=O)N2C(C(=O)O)=C(Sc3nc(-c4ccccc4)cs3)[C@H](C)[C@H]12 | 6.25 (≈ 15.5 µM) | 0.1 (≈ 0.248 µM) | 0.025 (≈ 0.0621 µM) | 0.1 (≈ 0.248 µM) | 0.78 (≈ 1.94 µM) | > 94 | < 0.013 | 0.163
C[C@@H](O)[C@H]1C(=O)N2C(C(=O)O)=C(Sc3nc4ccccc4s3)[C@H](C)[C@H]12 | 25 (≈ 66.4 µM) | 0.78 (≈ 2.07 µM) | 0.2 (≈ 0.531 µM) | 0.78 (≈ 2.07 µM) | 3.13 (≈ 8.31 µM) | > 94 | 0.025 (≈ 0.0664 µM) | 
C[C@@H](O)[C@H]1C(=O)N2C(C(=O)O)=C(Sc3ncc(-c4ccccc4)s3)[C@H](C)[C@H]12 | 25 (≈ 62.1 µM) | 0.39 (≈ 0.969 µM) | 0.39 (≈ 0.969 µM) | 0.39 (≈ 0.969 µM) | 12.5 (≈ 31.1 µM) | > 94 | < 0.006 | 0.25
C[C@@H](O)[C@H]1C(=O)N2C(C(=O)[O-])=C(Sc3nc(-c4ccc5cc[n+](C)cc5c4)cs3)[C@H](C)[C@H]12 | 3.13 (≈ 6.69 µM) | 0.05 (≈ 0.107 µM) | 0.013 (≈ 0.0278 µM) | 0.05 (≈ 0.107 µM) | 0.78 (≈ 1.67 µM) | 59 | < 0.006 | 0.2
C[C@@H](O)[C@H]1C(=O)N2C(C(=O)O)=C(Sc3nc(-c4ccc(C(N)=O)cc4)cs3)[C@H](C)[C@H]12 | 6.25 (≈ 14 µM) | 0.1 (≈ 0.224 µM) | 0.025 (≈ 0.0561 µM) | 0.2 (≈ 0.449 µM) | 1.56 (≈ 3.5 µM) | 99 | < 0.006 | 0.2
CCCc1csc(SC2=C(C(=O)O)N3C(=O)[C@H]([C@@H](C)O)[C@H]3[C@H]2C)n1 | 12.5 (≈ 33.9 µM) | 0.2 (≈ 0.543 µM) | 0.05 (≈ 0.136 µM) | 0.39 (≈ 1.06 µM) | 3.13 (≈ 8.49 µM) | 96 | 0.025 (≈ 0.0678 µM) | 0.2
C[C@@H](O)[C@H]1C(=O)N2C(C(=O)O)=C(SCCNC=N)C[C@H]12 [IMIPENEM ANHYDROUS] | 0.1 (≈ 0.334 µM) | 0.1 (≈ 0.334 µM) | 0.2 (≈ 0.668 µM) | 0.78 (≈ 2.61 µM) | 50 (≈ 167 µM) |  | 0.013 (≈ 0.0434 µM) | 0.2
C[C@@H](O)[C@H]1C(=O)N2C(C(=O)[O-])=C(Sc3nc(-c4ccc[n+](C)c4)cs3)[C@H](C)[C@H]12 | 0.39 (≈ 0.934 µM) | 0.05 (≈ 0.12 µM) | 0.025 (≈ 0.0599 µM) | 0.2 (≈ 0.479 µM) | 1.56 (≈ 3.74 µM) | 7.8 | < 0.013 | 0.467
Cc1csc(SC2=C(C(=O)O)N3C(=O)[C@H]([C@@H](C)O)[C@H]3[C@H]2C)n1 | 3.13 (≈ 9.19 µM) | 0.05 (≈ 0.147 µM) | 0.05 (≈ 0.147 µM) | 0.39 (≈ 1.15 µM) | 3.13 (≈ 9.19 µM) | 93 | 0.025 (≈ 0.0734 µM) | 0.217
C[C@@H](O)[C@H]1C(=O)N2C(C(=O)[O-])=C(Sc3nc(-c4cc[n+](CC(N)=O)cc4)cs3)[C@H](C)[C@H]12 | 0.2 (≈ 0.434 µM) | 0.025 (≈ 0.0543 µM) | 0.05 (≈ 0.109 µM) | 0.2 (≈ 0.434 µM) | 1.56 (≈ 3.39 µM) | 15 | < 0.006 | 0.35
C[C@@H](O)[C@H]1C(=O)N2C(C(=O)O)=C(Sc3nc(-c4ccc(Cl)cc4)cs3)[C@H](C)[C@H]12 | 12.5 (≈ 28.6 µM) | 0.2 (≈ 0.458 µM) | 0.025 (≈ 0.0572 µM) | 0.2 (≈ 0.458 µM) | 1.56 (≈ 3.57 µM) | > 94 | < 0.013 | 0.165
C[C@@H](O)[C@H]1C(=O)N2C(C(=O)O)=C(Sc3nc(-c4ccc5ccncc5c4)cs3)[C@H](C)[C@H]12 | 12.5 (≈ 27.6 µM) | 0.2 (≈ 0.441 µM) | 0.025 (≈ 0.0551 µM) | 0.1 (≈ 0.22 µM) | 0.78 (≈ 1.72 µM) | 99 | < 0.006 | 0.162
Cc1ccc(-c2csc(SC3=C(C(=O)O)N4C(=O)[C@H]([C@@H](C)O)[C@H]4[C@H]3C)n2)cc1 | 12.5 (≈ 30 µM) | 0.39 (≈ 0.936 µM) | 0.025 (≈ 0.06 µM) | 0.2 (≈ 0.48 µM) | 3.13 (≈ 7.51 µM) | > 94 | < 0.006 | 0.153
C[C@@H](O)[C@H]1C(=O)N2C(C(=O)[O-])=C(Sc3nc(-c4ccc[n+](CC(N)=O)c4)cs3)[C@H](C)[C@H]12 | 0.39 (≈ 0.847 µM) | 0.05 (≈ 0.109 µM) | 0.025 (≈ 0.0543 µM) | 0.2 (≈ 0.434 µM) | 1.56 (≈ 3.39 µM) | 24 | < 0.006 | 0.283
C[C@@H](O)[C@H]1C(=O)N2C(C(=O)O)=C(Sc3nc(-c4ccc(CN)cc4)cs3)[C@H](C)[C@H]12 | 1.56 (≈ 3.61 µM) | 0.2 (≈ 0.463 µM) | 0.025 (≈ 0.0579 µM) | 0.2 (≈ 0.463 µM) | 1.56 (≈ 3.61 µM) | 87 | < 0.006 | 
C[C@@H](O)[C@H]1C(=O)N2C(C(=O)O)=C(Sc3nc(-c4cccnc4)cs3)[C@H](C)[C@H]12 | 6.25 (≈ 15.5 µM) | 0.05 (≈ 0.124 µM) | 0.025 (≈ 0.062 µM) | 0.2 (≈ 0.496 µM) | 1.56 (≈ 3.87 µM) | 97 | < 0.013 | 0.0533
C[C@@H](O)[C@H]1C(=O)N2C(C(=O)[O-])=C(Sc3nc(-c4cc[n+](C)cc4)cs3)[C@H](C)[C@H]12 | 0.39 (≈ 0.934 µM) | 0.025 (≈ 0.0599 µM) | 0.025 (≈ 0.0599 µM) | 0.1 (≈ 0.24 µM) | 1.56 (≈ 3.74 µM) | 12 | < 0.006 | 0.383
Cc1nc(SC2=C(C(=O)O)N3C(=O)[C@H]([C@@H](C)O)[C@H]3[C@H]2C)sc1C | 3.13 (≈ 8.83 µM) | 0.2 (≈ 0.564 µM) | 0.1 (≈ 0.282 µM) | 0.78 (≈ 2.2 µM) | 6.25 (≈ 17.6 µM) | > 75 | 0.025 (≈ 0.0705 µM) | 0.383
C[C@@H](O)[C@H]1C(=O)N2C(C(=O)O)=C(Sc3nc(-c4ccncc4)cs3)[C@H](C)[C@H]12 | 6.25 (≈ 15.5 µM) | 0.2 (≈ 0.496 µM) | 0.05 (≈ 0.124 µM) | 0.2 (≈ 0.496 µM) | 3.13 (≈ 7.76 µM) | 97 | < 0.013 | 0.267
